A word on the EC50: it is the concentration at which the effect is half-maximal.

Holding throughout (format): cell-based
Experiment [1] deals with T1, hMC4-R (Homo sapiens, UniProt P32245).
T1 construct: expressed in transfected cells; host or cells: CHO-K1
Nature of the experiment: cyclic AMP bioassay, hMC4-R.
Protocol: Intracellular cyclic AMP (cAMP) levels were determined by an electrochemiluminescence (ECL) assay (Meso Scale Discovery®, Gaithersburg, Md.; referred to hereinafter as MSD). […] Transgenic CHO-K1 cells stably expressing hMC receptor subtypes 1, 3, 4 or 5 were dispensed at a density of approximately 7,000 cells/well in 384-well Multi-Arrays plates (MSD) containing integrated carbon electrodes and coated with anti-CAMP antibody. Increasing concentrations of the test compounds were added and the cells were incubated for approximately 40 minutes at approximately 37° C. […] At the end of the second incubation period read buffer (Tris-buffered solution containing an ECL co-reactant and Triton X-100 at ph 7.8) was added and the cAMP levels in the cell lysates were immediately determined by ECL detection with a Sector Imager 6000 Reader® (MSD). Data were analyzed using a computer-assisted non-linear regression analysis (XL fit; IDBS) and reported as either an EC50 value or a Kb value.
The Kb value reflects the potency of an antagonist and is determined by Schild analysis. In brief, concentration-response curves of an agonist are carried out in the presence of increasing concentrations of an antagonist. […] It is calculated by extrapolating the line on a Schild plot to zero on the y-axis.

Experiment [2] concerns the target T2, hMC3-R (Homo sapiens, UniProt P41968).
T2 construct: expressed in transfected cells; host or cells: CHO-K1
The experiment is described as follows: cyclic AMP bioassay, hMC3-R.

Experiment [3] has as its target T3, hMC5-R (Homo sapiens, UniProt P33032).
T3 construct: expressed in transfected cells; host or cells: CHO-K1
Nature of the experiment: cyclic AMP bioassay, hMC5-R.

Experiment [4] has as its target T4, hMC1-R (Homo sapiens, UniProt Q01726).
T4 construct: expressed in transfected cells; host or cells: CHO-K1
The experiment is described as follows: cyclic AMP bioassay, hMC1-R.

T4 sequence (Q01726 whole entry): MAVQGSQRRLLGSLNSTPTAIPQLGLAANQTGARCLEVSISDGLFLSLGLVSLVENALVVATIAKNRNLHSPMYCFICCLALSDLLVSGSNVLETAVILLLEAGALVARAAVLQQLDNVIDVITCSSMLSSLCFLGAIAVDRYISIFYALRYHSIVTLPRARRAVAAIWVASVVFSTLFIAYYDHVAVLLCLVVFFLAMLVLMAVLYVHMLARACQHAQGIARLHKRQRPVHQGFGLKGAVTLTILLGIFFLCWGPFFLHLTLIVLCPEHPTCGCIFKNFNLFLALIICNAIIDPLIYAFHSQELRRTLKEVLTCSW
T2 sequence (P41968 whole entry): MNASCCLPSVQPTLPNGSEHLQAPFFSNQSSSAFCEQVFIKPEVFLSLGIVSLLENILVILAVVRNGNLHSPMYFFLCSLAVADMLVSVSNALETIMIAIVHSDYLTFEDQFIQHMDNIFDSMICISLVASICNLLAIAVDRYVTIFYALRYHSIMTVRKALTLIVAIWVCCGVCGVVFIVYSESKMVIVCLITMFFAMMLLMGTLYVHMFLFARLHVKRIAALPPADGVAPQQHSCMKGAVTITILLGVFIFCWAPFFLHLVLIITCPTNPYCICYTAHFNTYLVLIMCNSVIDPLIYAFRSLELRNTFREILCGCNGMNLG
T1 sequence (P32245 whole entry): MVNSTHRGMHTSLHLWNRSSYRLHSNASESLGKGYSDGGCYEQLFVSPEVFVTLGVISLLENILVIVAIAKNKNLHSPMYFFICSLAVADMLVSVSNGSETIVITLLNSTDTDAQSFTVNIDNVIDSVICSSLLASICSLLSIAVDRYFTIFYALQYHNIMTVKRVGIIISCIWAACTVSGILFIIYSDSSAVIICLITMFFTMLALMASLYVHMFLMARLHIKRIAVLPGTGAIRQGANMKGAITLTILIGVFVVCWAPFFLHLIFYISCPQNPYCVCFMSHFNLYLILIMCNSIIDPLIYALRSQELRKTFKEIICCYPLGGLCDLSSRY
T3 sequence (P33032 whole entry): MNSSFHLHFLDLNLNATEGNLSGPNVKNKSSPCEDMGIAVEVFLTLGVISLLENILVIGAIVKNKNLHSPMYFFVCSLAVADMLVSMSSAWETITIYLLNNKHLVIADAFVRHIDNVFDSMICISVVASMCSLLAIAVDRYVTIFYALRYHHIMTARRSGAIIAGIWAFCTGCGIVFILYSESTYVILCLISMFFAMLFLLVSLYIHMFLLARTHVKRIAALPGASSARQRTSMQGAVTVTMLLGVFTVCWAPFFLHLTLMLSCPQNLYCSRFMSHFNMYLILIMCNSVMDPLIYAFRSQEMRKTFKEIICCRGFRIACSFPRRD

Consider `CC(=O)N[C@H]1CSSC[C@@H](C(=O)N2CCC[C@H]2C(=O)N2CCC[C@H]2C(=O)N[C@@H](CCCCN)C(=O)N[C@@H](CC(=O)O)C(=O)NCCC(=O)N[C@@H](CCCNC(=N)N)C(=O)N[C@@H](CCCCN)C(=O)N[C@@H](CCCNC(=N)N)C(=O)N[C@@H](CCCNC(=N)N)C(=O)N[C@@H](CCCNC(=N)N)C(=O)N[C@@H](CCC(N)=O)C(=O)N[C@@H](CCCNC(=N)N)C(=O)N[C@@H](CCCNC(=N)N)C(=O)N[C@@H](CCCNC(=N)N)C(N)=O)NC(=O)[C@H](C)NC(=O)[C@H](Cc2cccc3ccccc23)NC(=O)[C@H](CCCNC(=N)N)NC(=O)[C@@H](Cc2ccc3ccccc3c2)NC(=O)[C@H](Cc2c[nH]cn2)NC(=O)[C@H](CCC(=O)O)NC1=O`, for which the Kb in experiment [1] is 15.3 nM; in experiment [2] it was 65.1 nM. Besides, the values for the EC50 in experiment [3] and in experiment [4] were 1720 nM and 33.1 nM, respectively.

With `CC(=O)N[C@H]1CSSC[C@@H](C(=O)N2CCC[C@H]2C(=O)N2CCC[C@H]2C(=O)N[C@@H](CCCCN)C(=O)N[C@@H](CC(=O)O)C(=O)NCCC(=O)N[C@@H](CCCNC(=N)N)C(=O)N[C@@H](CCCNC(=N)N)C(=O)N[C@@H](CCCCN)C(=O)N[C@@H](CCCNC(=N)N)C(=O)N[C@@H](CCCNC(=N)N)C(=O)N[C@@H](CCC(N)=O)C(=O)N[C@@H](CCCNC(=N)N)C(=O)N[C@@H](CCCNC(=N)N)C(=O)N[C@@H](CCCNC(=N)N)C(N)=O)NC(=O)[C@H](C)NC(=O)[C@H](Cc2cccc3ccccc23)NC(=O)[C@H](CCCNC(=N)N)NC(=O)[C@@H](Cc2ccc3ccccc3c2)NC(=O)[C@H](Cc2c[nH]cn2)NC(=O)[C@H](CCC(=O)O)NC1=O`, the Kb turned out to be 18.6 nM in experiment [1] and 286 nM in experiment [2]. For the same compound, the EC50 in experiment [3] was more than 10000 nM; in experiment [4] it was 70.4 nM.

Turning to `CC(=O)N[C@H]1CSSC[C@@H](C(=O)N2CCC[C@H]2C(=O)N2CCC[C@H]2C(=O)N[C@@H](CCCCN)C(=O)N[C@@H](CC(=O)O)C(=O)NCCC(=O)N[C@@H](CCCNC(=N)N)C(=O)N[C@@H](CCCNC(=N)N)C(=O)N[C@@H](CCCNC(=N)N)C(=O)N[C@@H](CCCNC(=N)N)C(=O)N[C@@H](CCCNC(=N)N)C(=O)N[C@@H](CCC(N)=O)C(=O)N[C@@H](CCCNC(=N)N)C(=O)N[C@@H](CCCNC(=N)N)C(=O)N[C@@H](CCCNC(=N)N)C(N)=O)NC(=O)[C@H](C)NC(=O)[C@H](Cc2ccc3ccccc3c2)NC(=O)[C@H](CCCNC(=N)N)NC(=O)[C@@H](Cc2ccc3ccccc3c2)NC(=O)[C@H](Cc2c[nH]cn2)NC(=O)[C@H](CCC(=O)O)NC1=O`, the Kb came to 12.6 nM in experiment [1] and 22.9 nM in experiment [2]. Besides, the EC50 in experiment [3] came to 199 nM; in experiment [4], 35.2 nM.

On to `CC(=O)N[C@H]1CSSC[C@@H](C(=O)N2CCC[C@H]2C(=O)N2CCC[C@H]2C(=O)N[C@@H](CCCCN)C(=O)N[C@@H](CC(=O)O)C(=O)NCCC(=O)N[C@@H](CCCNC(=N)N)C(=O)N[C@@H](CCCNC(=N)N)C(=O)N[C@@H](CCCCN)C(=O)N[C@@H](CCCNC(=N)N)C(=O)N[C@@H](CCCNC(=N)N)C(=O)N[C@@H](CCC(N)=O)C(=O)N[C@@H](CCCNC(=N)N)C(=O)N[C@@H](CCCNC(=N)N)C(=O)N[C@@H](CCCNC(=N)N)C(N)=O)NC(=O)[C@H](C)NC(=O)[C@H](Cc2ccc3ccccc3c2)NC(=O)[C@H](CCCNC(=N)N)NC(=O)[C@@H](Cc2ccc3ccccc3c2)NC(=O)[C@H](Cc2c[nH]cn2)NC(=O)[C@H](CCC(=O)O)NC1=O`, for which the Kb was found to be 17.4 nM in experiment [1] and 10.6 nM in experiment [2]. The EC50 in experiment [3] is 514 nM; in experiment [4], 88.2 nM.

The values are drawn from US20090232838A1, “Ligands of melanocortin receptors” (priority 2005, published 2009).
